The record followed here is US12252524B2, “GIP/GLP1 co-agonist compounds” (Eli Lilly and Company, priority 2018, dated 2025).

Numbered stars: 1 amine (or outer) side, 2 acyl side, 3 side chain; on linkers, the order of the positions; unused ones are H or OH. Square brackets hold non-standard residues; d marks the D form. Side chains are listed from the residue outwards. Peptide text beside a SMILES is read from it. * marks the point of attachment. C20 diacid = O=C(O)CCCCCCCCCCCCCCCCCCC(=O)*; γGlu = O=C(O)[C@H](CCC(=O)[*:2])N[*:1]; αMeF = C[C@](N)(Cc1ccccc1)C(=O)O; 3Pal = N[C@@H](Cc1cccnc1)C(=O)O; AEEA = NCCOCCOCC(=O)O; Aib = CC(C)(N)C(=O)O

Assay [1] has as its target human GLP-1 receptor (GLP-1R) (Homo sapiens, UniProt P43220). Nature of the assay: cAMP pharmacological functional assay in presence of casein, hGLP-1R. It counts as cell-based. The following applies: HEK293 cells expressing hGLP-1R, 0.1% Casein, geometric mean; read-out: hGLP1R cAMP Rel EC50 nM (SEM, n).
Assay [2] concerns the target T1, gastric inhibitory peptide receptor (GIPR) (Homo sapiens, UniProt P48546).
T1 sequence (P48546 22-466): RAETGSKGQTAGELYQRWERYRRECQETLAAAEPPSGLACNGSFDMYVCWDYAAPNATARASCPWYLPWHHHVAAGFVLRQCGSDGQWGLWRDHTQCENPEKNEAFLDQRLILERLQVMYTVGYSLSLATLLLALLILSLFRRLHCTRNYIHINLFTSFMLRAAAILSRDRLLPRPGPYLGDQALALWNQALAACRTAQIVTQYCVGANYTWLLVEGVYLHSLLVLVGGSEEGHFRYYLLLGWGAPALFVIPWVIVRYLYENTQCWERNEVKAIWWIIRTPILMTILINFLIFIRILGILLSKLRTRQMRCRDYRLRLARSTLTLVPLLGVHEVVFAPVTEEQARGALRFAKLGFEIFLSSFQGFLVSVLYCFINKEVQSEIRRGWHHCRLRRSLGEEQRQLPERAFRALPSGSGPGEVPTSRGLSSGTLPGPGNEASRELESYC
Description: cAMP pharmacological functional assay in presence of casein, hGIPR. The following applies: HEK293 cells expressing hGIPR, 0.1% Casein, geometric mean; read-out: hGIPR cAMP Rel EC50 nM (SEM, n). It counts as cell-based.

Sequence of human GLP-1 receptor (GLP-1R) (P43220 24-463): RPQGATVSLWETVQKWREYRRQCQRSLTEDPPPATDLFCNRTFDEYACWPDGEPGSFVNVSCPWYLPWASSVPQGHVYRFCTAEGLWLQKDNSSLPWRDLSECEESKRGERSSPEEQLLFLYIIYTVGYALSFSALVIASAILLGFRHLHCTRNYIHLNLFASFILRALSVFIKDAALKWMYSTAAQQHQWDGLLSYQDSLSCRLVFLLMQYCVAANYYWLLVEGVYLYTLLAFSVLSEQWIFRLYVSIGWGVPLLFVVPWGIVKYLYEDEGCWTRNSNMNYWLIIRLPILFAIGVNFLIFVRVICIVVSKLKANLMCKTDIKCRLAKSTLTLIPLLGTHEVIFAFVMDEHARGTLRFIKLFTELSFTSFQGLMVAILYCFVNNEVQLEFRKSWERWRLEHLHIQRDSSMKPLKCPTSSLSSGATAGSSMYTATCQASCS

A word on the EC50: it is the concentration needed to bring the measured effect to its halfway point. Consider `CC[C@H](C)[C@H](NC(=O)[C@H](CC(C)C)NC(=O)[C@H](Cc1ccc(O)cc1)NC(=O)[C@H](CCC(=O)O)NC(=O)[C@@H](NC(=O)[C@H](Cc1ccccc1)NC(=O)[C@H](C)NC(=O)C(C)(C)NC(=O)[C@H](CCC(N)=O)NC(=O)[C@H](C)NC(=O)[C@H](CCCCNC(=O)COCCOCCNC(=O)COCCOCCNC(=O)CC[C@H](NC(=O)CCCCCCCCCCCCCCCCCCC(=O)O)C(=O)O)NC(=O)[C@H](CCC(=O)O)NC(=O)[C@H](CC(=O)O)NC(=O)[C@H](CC(C)C)NC(=O)C(C)(C)NC(=O)[C@@H](NC(=O)[C@H](CO)NC(=O)[C@H](Cc1ccc(O)cc1)NC(=O)[C@H](CC(=O)O)NC(=O)[C@H](CO)NC(=O)[C@@H](NC(=O)[C@](C)(Cc1ccccc1)NC(=O)[C@@H](NC(=O)CNC(=O)[C@H](CCC(=O)O)NC(=O)C(C)(C)NC(=O)[C@@H](N)Cc1ccc(O)cc1)[C@@H](C)O)[C@@H](C)O)[C@@H](C)CC)[C@@H](C)CC)C(=O)N[C@@H](CCC(=O)O)C(=O)NCC(=O)NCC(N)=O` [Example 102] (H-Y[Aib]EGT[αMeF]TSDYSI[Aib]LDEK([AEEA-AEEA-γGlu-C20 diacid])AQ[Aib]AFIEYLIEGG-NH2), for which the EC50 turned out to be 0.0628 nM in assay [1] and 0.178 nM in assay [2].
With `CC[C@H](C)[C@H](NC(=O)[C@H](CC(C)C)NC(=O)[C@H](Cc1ccc(O)cc1)NC(=O)[C@H](CCC(=O)O)NC(=O)[C@@H](NC(=O)[C@H](Cc1ccccc1)NC(=O)[C@H](C)NC(=O)C(C)(C)NC(=O)[C@H](CCC(N)=O)NC(=O)[C@H](C)NC(=O)[C@H](CCCCNC(=O)COCCOCCNC(=O)[C@H]1CC[C@H](CNC(=O)CC[C@H](NC(=O)CCCCCCCCCCCCCCCCCCC(=O)O)C(=O)O)CC1)NC(=O)[C@H](CCCCN)NC(=O)[C@H](CC(=O)O)NC(=O)[C@H](CC(C)C)NC(=O)[C@H](CC(C)C)NC(=O)[C@@H](NC(=O)[C@H](CO)NC(=O)[C@H](Cc1ccc(O)cc1)NC(=O)[C@H](CC(=O)O)NC(=O)[C@H](CO)NC(=O)[C@@H](NC(=O)[C@H](Cc1ccccc1)NC(=O)[C@@H](NC(=O)CNC(=O)[C@H](CCC(=O)O)NC(=O)C(C)(C)NC(=O)[C@@H](N)Cc1ccc(O)cc1)[C@@H](C)O)[C@@H](C)O)[C@@H](C)CC)[C@@H](C)CC)C(=O)N[C@@H](CCC(=O)O)C(=O)NCC(=O)NCC(=O)N1CCC[C@H]1C(=O)N[C@@H](CO)C(=O)N[C@@H](CO)C(=O)NCC(=O)N[C@@H](C)C(=O)N1CCC[C@H]1C(=O)N1CCC[C@H]1C(=O)N1CCC[C@H]1C(=O)N[C@@H](CO)C(N)=O` [Example 111], the EC50 in assay [1] came out at 0.308 nM; in assay [2] it was 0.141 nM.
Take `CC[C@H](C)[C@H](NC(=O)[C@H](CC(C)C)NC(=O)[C@H](Cc1ccc(O)cc1)NC(=O)[C@H](CCC(=O)O)NC(=O)[C@@H](NC(=O)[C@H](Cc1ccccc1)NC(=O)[C@H](C)NC(=O)C(C)(C)NC(=O)[C@H](CCC(N)=O)NC(=O)[C@H](C)NC(=O)[C@H](CCCCNC(=O)COCCOCCNC(=O)COCCOCCNC(=O)[C@@H](N)CCCCNC(=O)CCCCCCCCCCCCCCCCCCC(=O)O)NC(=O)[C@H](CCCCN)NC(=O)[C@H](CC(=O)O)NC(=O)[C@H](CC(C)C)NC(=O)[C@H](CC(C)C)NC(=O)[C@@H](NC(=O)[C@H](CO)NC(=O)[C@H](Cc1ccc(O)cc1)NC(=O)[C@H](CC(=O)O)NC(=O)[C@H](CO)NC(=O)[C@@H](NC(=O)[C@H](Cc1ccccc1)NC(=O)[C@@H](NC(=O)CNC(=O)[C@H](CCC(=O)O)NC(=O)C(C)(C)NC(=O)[C@@H](N)Cc1ccc(O)cc1)[C@@H](C)O)[C@@H](C)O)[C@@H](C)CC)[C@@H](C)CC)C(=O)N[C@@H](CCC(=O)O)C(=O)NCC(=O)NCC(=O)N1CCC[C@H]1C(=O)N[C@@H](CO)C(=O)N[C@@H](CO)C(=O)NCC(=O)N[C@@H](C)C(=O)N1CCC[C@H]1C(=O)N1CCC[C@H]1C(=O)N1CCC[C@H]1C(=O)N[C@@H](CO)C(N)=O` [Example 113]: the EC50 in assay [1] is 0.233 nM; in assay [2], 0.166 nM.
With `CC[C@H](C)[C@H](NC(=O)[C@H](CC(C)C)NC(=O)[C@H](Cc1ccc(O)cc1)NC(=O)[C@H](CCC(=O)O)NC(=O)[C@@H](NC(=O)[C@H](Cc1ccccc1)NC(=O)[C@H](C)NC(=O)C(C)(C)NC(=O)[C@H](CCC(N)=O)NC(=O)[C@H](C)NC(=O)[C@H](CCCCNC(=O)COCCOCCNC(=O)[C@@H](N)CCCCNC(=O)[C@@H](N)CCCCNC(=O)CCCCCCCCCCCCCCCCCCC(=O)O)NC(=O)[C@H](CCCCN)NC(=O)[C@H](CC(=O)O)NC(=O)[C@H](CC(C)C)NC(=O)[C@H](CC(C)C)NC(=O)[C@@H](NC(=O)[C@H](CO)NC(=O)[C@H](Cc1ccc(O)cc1)NC(=O)[C@H](CC(=O)O)NC(=O)[C@H](CO)NC(=O)[C@@H](NC(=O)[C@H](Cc1ccccc1)NC(=O)[C@@H](NC(=O)CNC(=O)[C@H](CCC(=O)O)NC(=O)C(C)(C)NC(=O)[C@@H](N)Cc1ccc(O)cc1)[C@@H](C)O)[C@@H](C)O)[C@@H](C)CC)[C@@H](C)CC)C(=O)N[C@@H](CCC(=O)O)C(=O)NCC(=O)NCC(=O)N1CCC[C@H]1C(=O)N[C@@H](CO)C(=O)N[C@@H](CO)C(=O)NCC(=O)N[C@@H](C)C(=O)N1CCC[C@H]1C(=O)N1CCC[C@H]1C(=O)N1CCC[C@H]1C(=O)N[C@@H](CO)C(N)=O` [Example 114], the results for the EC50 in assay [1] and in assay [2] were 0.267 nM and 0.133 nM, respectively.
For `CC[C@H](C)[C@H](NC(=O)[C@H](CC(C)C)NC(=O)[C@H](Cc1ccc(O)cc1)NC(=O)[C@H](CCC(=O)O)NC(=O)[C@@H](NC(=O)[C@H](Cc1ccccc1)NC(=O)[C@H](C)NC(=O)C(C)(C)NC(=O)[C@H](CCC(N)=O)NC(=O)[C@H](C)NC(=O)[C@H](CCCCNC(=O)COCCOCCNC(=O)COCCOCCNC(=O)CC[C@H](NC(=O)CCCCCCCCCCCCCCCCCCC(=O)O)C(=O)O)NC(=O)[C@H](CCCCN)NC(=O)[C@H](CC(=O)O)NC(=O)[C@H](CC(C)C)NC(=O)[C@H](CC(C)C)NC(=O)[C@@H](NC(=O)[C@H](CO)NC(=O)[C@](C)(Cc1ccccc1)NC(=O)[C@H](CC(=O)O)NC(=O)[C@H](CO)NC(=O)[C@@H](NC(=O)[C@](C)(Cc1ccccc1)NC(=O)[C@@H](NC(=O)CNC(=O)[C@H](CCC(=O)O)NC(=O)C(C)(C)NC(=O)[C@@H](N)Cc1ccc(O)cc1)[C@@H](C)O)[C@@H](C)O)[C@@H](C)CC)[C@@H](C)CC)C(=O)N[C@@H](CCC(=O)O)C(=O)NCC(=O)NCC(=O)N1CCC[C@H]1C(=O)N[C@@H](CO)C(=O)N[C@@H](CO)C(=O)NCC(=O)N[C@@H](C)C(=O)N1CCC[C@H]1C(=O)N1CCC[C@H]1C(=O)N1CCC[C@H]1C(=O)N[C@@H](CO)C(N)=O` [Example 131] (H-Y[Aib]EGT[αMeF]TSD[αMeF]SILLDKK([AEEA-AEEA-γGlu-C20 diacid])AQ[Aib]AFIEYLIEGGPSSGAPPPS-NH2) the same measures were 0.156 nM and 0.183 nM.
As to `CC[C@H](C)[C@H](NC(=O)[C@H](CC(C)C)NC(=O)[C@H](Cc1ccc(O)cc1)NC(=O)[C@H](CCC(=O)O)NC(=O)[C@@H](NC(=O)[C@H](Cc1ccccc1)NC(=O)[C@H](C)NC(=O)C(C)(C)NC(=O)[C@H](CCC(N)=O)NC(=O)[C@H](C)NC(=O)[C@H](CCCCNC(=O)COCCOCCNC(=O)COCCOCCNC(=O)CC[C@H](NC(=O)CCCCCCCCCCCCCCCCCCC(=O)O)C(=O)O)NC(=O)[C@H](CCCCN)NC(=O)[C@H](CC(=O)O)NC(=O)[C@H](CC(C)C)NC(=O)[C@H](CC(C)C)NC(=O)[C@@H](NC(=O)[C@H](CO)NC(=O)[C@H](Cc1cccnc1)NC(=O)[C@H](CC(=O)O)NC(=O)[C@H](CO)NC(=O)[C@@H](NC(=O)[C@](C)(Cc1ccccc1)NC(=O)[C@@H](NC(=O)CNC(=O)[C@H](CCC(=O)O)NC(=O)C(C)(C)NC(=O)[C@@H](N)Cc1ccc(O)cc1)[C@@H](C)O)[C@@H](C)O)[C@@H](C)CC)[C@@H](C)CC)C(=O)N[C@@H](CCC(=O)O)C(=O)NCC(=O)NCC(=O)N1CCC[C@H]1C(=O)N[C@@H](CO)C(=O)N[C@@H](CO)C(=O)NCC(=O)N[C@@H](C)C(=O)N1CCC[C@H]1C(=O)N1CCC[C@H]1C(=O)N1CCC[C@H]1C(=O)N[C@@H](CO)C(N)=O` [Example 132] (H-Y[Aib]EGT[αMeF]TSD[3Pal]SILLDKK([AEEA-AEEA-γGlu-C20 diacid])AQ[Aib]AFIEYLIEGGPSSGAPPPS-NH2), the EC50 in assay [1] stood at 0.26 nM; in assay [2], 0.0657 nM.
For `CC[C@H](C)[C@H](NC(=O)[C@H](CC(C)C)NC(=O)[C@H](Cc1ccc(O)cc1)NC(=O)[C@H](CCC(=O)O)NC(=O)[C@@H](NC(=O)[C@H](Cc1ccccc1)NC(=O)[C@H](C)NC(=O)C(C)(C)NC(=O)[C@H](CCC(N)=O)NC(=O)[C@H](C)NC(=O)[C@H](CCCCNC(=O)COCCOCCNC(=O)COCCOCCNC(=O)CC[C@H](NC(=O)CCCCCCCCCCCCCCCCCCC(=O)O)C(=O)O)NC(=O)[C@H](CCCCN)NC(=O)[C@H](CC(=O)O)NC(=O)[C@H](CC(C)C)NC(=O)[C@H](CC(C)C)NC(=O)[C@@H](NC(=O)[C@H](CO)NC(=O)[C@H](C)NC(=O)[C@H](CC(=O)O)NC(=O)[C@H](CO)NC(=O)[C@@H](NC(=O)[C@H](Cc1ccccc1)NC(=O)[C@@H](NC(=O)CNC(=O)[C@H](CCC(=O)O)NC(=O)C(C)(C)NC(=O)[C@@H](N)Cc1ccc(O)cc1)[C@@H](C)O)[C@@H](C)O)[C@@H](C)CC)[C@@H](C)CC)C(=O)N[C@@H](CCC(=O)O)C(=O)N[C@@H](C)C(=O)NCC(=O)N1CCC[C@H]1C(=O)N[C@@H](CO)C(=O)N[C@@H](CO)C(=O)NCC(=O)N[C@@H](C)C(=O)N1CCC[C@H]1C(=O)N1CCC[C@H]1C(=O)N1CCC[C@H]1C(=O)N[C@@H](CO)C(N)=O` [Example 136] (H-Y[Aib]EGTFTSDASILLDKK([AEEA-AEEA-γGlu-C20 diacid])AQ[Aib]AFIEYLIEAGPSSGAPPPS-NH2), the EC50 in assay [1] amounted to 0.06 nM; in assay [2], 3.39 nM.
